# Measurements reported in US9359405B2, “Antagonists of the interleukin-1 receptor” (Phlogo ApS, priority 2011, dated 2016).
# No end group written: not given here.
# Legend:
# [1] = system: collagen-induced arthritis (CIA); test: Collagen-induced arthritis in rats, treatment from day 15 (Example 7); assay type: in vivo, rat; settings: 3.3 and 10 mg/kg s.c. daily from day 15
# Text: Rheumatoid arthritis is a chronic, inflammatory, systemic autoimmune disease that affects about 1% of the general population in Western countries. Collagen-induced arthritis (CIA) in rats is a widely employed animal model for the screening of anti-inflammatory compounds. Collagen bovine, type II (CII, Cat.no.20021, Lot 090209, Chondrex, USA), Complete Freund's Adjuvant, containing 0.1% of Mycobacterium tuberculosis (CFA, Cat.no. F5581, Lot 049K8700, Sigma-Aldrich), Incomplete Freund's Adjuvant (IFA, Cat.no. F5506, Lot 058K8702, Sigma). PBS (Panum Institute, Copenhagen University). Isofluran (Baxter). Animals were immunized twice: on day 0 (CII+CFA) and on day 10 (CII+IFA, booster). On day 15 the mean clinical score reached a value of 5.0 and all animals were divided into 3 groups so that the severity of disease (mean clinical score) in all groups was almost equal. The peptide (two doses, 3.3 and 10 mg/kg) was administered subcutaneously daily starting at day 15. The clinical evaluation of the arthritis severity was assessed using the following grading system: O— no redness or swelling in foot and palm; 1—slight swelling or redness in metatarsophalangeal joint and ankle joint foot or palm; 2—progressed swelling/inflammation and redness from ankle to mid foot or in entire palm; 3—swelling/inflammation of entire foot except toes; 4—swelling and inflammation of entire foot including toes.
# [2] = system: cerebellar granule neurons; test: Neurite outgrowth in primary cerebellar granule neurons; assay type: cell-based, rat; settings: 24 h, primary cerebellar neurons
# Method: Cerebellar granular neurons (CGN) were prepared from 3 or 7 postnatal (P) day Wistar rats (Charles River, Sulzfeld, Germany or Taconic, Ejby, Denmark). Cerebella were cleared of meninges and blood vessels, roughly homogenized by chopping, and trypsinized with trypsin from Sigma-Aldrich (Brøndby, Denmark). The neurons were washed in the presence of DNAse 1 and soybean trypsin inhibitor (Sigma-Aldrich), and cellular debris was pelleted by centrifugation before plating. CGNs were plated at a density of 10,000 cells/well onto uncoated eight-well Lab-Tek chamber slides (NUNC, Slangerup, Denmark) in Neurobasal-A medium supplemented with 0.4% (w/v) BSA. Peptides or proteins at various concentrations were added to the medium immediately after plating, and cells were maintained at 37° C. and 5% CO2 for 24 h. Cultures then were fixed, blocked and incubated with polyclonal rabbit antibody against rat GAP-43 (Chemicon, Temecula, Calif., USA) followed by incubation with secondary Alexa Fluor488 goat anti-rabbit antibody (Molecular Probes, Eugene, Oreg., USA) as previously described (Neiiendam et al., 2004). The immunostained cultures were all recorded by computer-assisted fluorescence microscopy using a Nikon Diaphot inverted microscope (Nikon, Japan) equipped with a Nikon Plane 20× objective. Images were captured with a charge-coupled device video camera (Grundig Electronics, Nurnberg, Germany) using the software package Prima developed at the Protein Laboratory (University of Copenhagen, Copenhagen, Denmark). The length of neuronal processes per cell was estimated using the software package Process Length developed at the Protein Laboratory (Ronn et al. 2000). For estimation of neurite outgrowth, at least 200±20 cells were processed for each group in each individual experiment.
# [3] = system: NF-κB activated by IL1β (IL1RI signaling), HEK-Blue IL1β cells; test: IL1RI signaling assay, HEK-Blue IL1β reporter cells (NF-κB/SEAP); assay type: cell-based; settings: IL1β 1.2 μM
# Text: IL1RI signaling assay: Commercially available Blue™ Cytokine Reporter Cell technology from InvivoGen (Denmark distributor: Sigma-Aldrich Denmark) was used. It is represented by an expanding family of engineered cell lines designed to provide a simple, rapid, and reliable method of monitoring the activation of signaling pathways induced by key cytokines. HEK-Blue™ IL1β cells are specifically engineered to selectively respond to IL1β, and they feature the secreted embryonic alkaline phosphatase (SEAP) reporter gene under the control of an NF-κB-inducible promoter. […] A target/receptor-specificity of the Ilantafin effect was verified employing HEK-Blue™ IL6 cells.
sequence,measurement,setting,value
SGRKSSKMQA [Ilantafin],clinical manifestations (clinical score) of CIA,[1],abrogates an increase in clinical manifestations of CIA in rats
same,neurite outgrowth,[2],induce neurite outgrowth in primary cerebellar neurons in a dose-dependent manner
same,inhibition of NF-κB activation induced by IL1β,[3],inhibits activation of macrophages
